{"source": "patent US12195437B2", "about": "“Lipophenolic flavonoid derivatives useful to reduce carbonyl and oxidative stresses (COS)” (Centre National de la Recherche Scientifique (CNRS), priority 2018, dated 2025)", "type_in_all_cases": "cell-based", "key": {"[1]": {"system": "ARPE-19 cells", "assay": "Protection of lipophenols against all-trans-retinal toxicity (anti-carbonyl stress activity, MTT)", "conditions": "trans-retinal 15 μM", "method": "(§1) ARPE-19 cells (cells from the retinal pigment epithelium) were obtained from ATCC, and were grown following the instructions in Dulbecco's Modified Eagle's Medium (DMEM)/Ham F12 (GIBCO) containing 10% v/v fetal bovine serum (FBS) and 1% v/v penicillin/streptomycin under a humidified air (95%)/CO2 (5%) atmosphere at 37° C. For experimental cell seeding and sub-culturing, cells were dissociated with 0.25% trypsin-EDTA, re-suspended in the culture medium and then plated at 1-3×10^5 cells/mL.\n(§2) Cell viability was determined by MTT colorimetric assay. Cells were incubated for 2 h with MTT reagent (0.5 mg/mL). During this incubation time, dehydrogenases of living cells reduced MTT to insoluble purple formazan, which was then dissolved in DMSO. The absorbance at 570 nm and 655 nm of individual wells was measured using a microplate reader (BioRad 550). The percentage of viable cells was calculated as [(OD570 sample−OD655 sample)/(OD570 control−OD655 control)]×100%.\nARPE-19 cells were plated into 96-well plates (4×10^4 cells/well) and cultured for 24 h to reach confluence before lipophenol treatment. The cell cultures were treated with serum free medium containing lipophenols at different concentrations (0-80 μM) for 1 h. Then all-trans-retinal was added to a final concentration of 15 μM for 4 h, before rinsing with medium. Control cells were incubated with DMSO (0.2%)±all-trans-retinal. The cell viability was determined 16-20 h later using a MTT colorimetric assay. All samples are expressed as percentage of viability compared to non-treated and exposed to all-trans-retinal control cells. Non-treated and non-exposed to all-trans-retinal control cells are normalized at 100% survival.\nThe results on the measurement of anti-carbonyl stress activity will be discussed in % cell survival gain compared to cells stressed by trans-retinal (at 15 μM) and not treated with lipophenols. Any survival gain greater than +5% will be considered as a proven anti-carbonyl stress activity."}, "[2]": {"system": "ARPE-19 cells", "assay": "Protection of lipophenols against ROS production (DCFDA probe, H2O2)", "conditions": "80 μM lipophenol, H2O2 600 μM", "method": "as §1\nReactive oxygen species (ROS) were measured in ARPE-19 cells with the probe DCFDA. The cell permeant reagent DCFDA is deacetylated by cellular esterases to […], which can be oxidized by ROS into the fluorophore 2′,7′-dichlorofluorescein (DCF). ARPE-19 cells were plated into black, opaque bottom 96-well plates (4×10^4 cells/well) and cultured for 24 h to reach confluence before drug treatment. The cell cultures were incubated with 2 μM of DCFDA for 45 min in DMEM/F12 medium without phenol red+1% FBS. The cells were rinsed and incubated with medium containing lipophenols at different concentrations (0-80 μM) for 1 h. Then H2O2 was added to a final concentration of 600 μM for 4 h, followed by the measurement of DCF production by fluorescence spectroscopy with excitation wavelength at 485 nm and emission wavelength at 535 nm. Control cells were incubated with DMSO (0.2%)±DCFDA±H2O2. All samples are expressed as percentage of ROS production compared to non-oxidized control cells (normalized at 100% of ROS production).\nThe lowest percentages of increase will therefore be representative of the most protective derivatives."}, "[3]": {"assay": "Cytotoxicity of lipophenols on ARPE-19 cells (MTT)", "conditions": "human, ARPE-19 cells (retinal pigment epithelium), tested 0-160 μM, read-out: CC50 (cytotoxic concentration 50)", "method": "as §2\nARPE-19 cells were plated into 96-well plates (4×10^4 cells/well) and cultured for 24 h to reach confluence before lipophenol treatment. […] Control cells were incubated with DMSO (0.2%). The viability of the cells was determined using a MTT colorimetric assay. All samples are expressed as percentage of viability compared to non-treated control cells (normalized at 100% survival).\nResults on the measurement of lipophenol toxicity will be discussed in % cell survival at a given lipophenol concentration compared to untreated cells. […] Any concentration of lipophenol resulting in cell survival of less than 5% (zero survival) will be considered a highly toxic concentration."}, "[4]": {"system": "ARPE-19 cells", "assay": "Protection of lipophenols against photoactivated A2E toxicity (MTT)", "conditions": "from 40 μM lipophenol (plateau), A2E 20 μM, blue light", "method": "as §1, §2\nARPE-19 cells were plated into 96-well plates (4×10^4 cells/well) and cultured for 24 h to reach confluence before lipophenol treatment. The cell cultures were treated with serum free DMEM/F12 medium without phenol red containing lipophenols at different concentrations (0-80 μM) for 1 h. Then A2E was added to a final concentration of 20 μM for 6 h, before rinsing with medium. Control cells were incubated with DMSO (0.2%)+A2E. Cells were exposed to intense blue light (4600 LUX) for 30 min to induce phototoxicity of A2E and incubated at 37° C. The cell viability was determined 16-20 h later using a MTT colorimetric assay. All samples are expressed as percentage of viability compared to non-treated and exposed to A2E control cells. Non-treated and non-exposed to A2E control cells are normalized at 100% survival.\nPhotoactivation of A2E leads to its oxidation and can generate cytotoxic derivatives, in particular carbonyl derivatives responsible for carbonyl stress. Results on lipophenol protection against photoactivated A2E toxicity will be discussed in % cell survival gain compared to cells stressed by A2E and not treated by lipophenols. This additional evaluation was not performed for all synthesized lipophenolic derivatives but only a selection of them to discuss the results obtained."}}, "note": "“Also recorded” adds a separate entry of the source."}
{"smiles": "CCCCC/C=C\\C/C=C\\CCCCCCCC(=O)O[C@H]1Cc2c(O)cc(O)cc2O[C@@H]1c1ccc(O)c(O)c1", "note": "[C-3LA, (9Z,12Z)-(2R,3S)-2-(3,4-dihydroxyphenyl)-5,7-dihydroxy-chroman-3-yl octadeca-9,12-dienoate]", "values": [{"measurement": "cell survival gain (anti-carbonyl stress activity)", "setting": "[1]; 80 μM lipophenol, compared to stressed untreated cells", "value": "+11%"}, {"measurement": "gain of % of ROS production compared to non-stressed cells", "setting": "[2]", "value": "+24%"}, {"measurement": "CC50 at 24 h", "setting": "[3]", "value": "< 160", "unit": "µM"}]}
{"smiles": "O=c1c(O)c(-c2ccc(O)c(O)c2)oc2cc(O)cc(O)c12", "note": "[quercetin, reference compound]", "values": [{"measurement": "anti-carbonyl stress activity (in words)", "setting": "[1]; up to 80 μM lipophenol", "value": "did not show anti-carbonyl stress potency; also recorded: no cellular protection"}, {"measurement": "CC50 at 24 h", "setting": "[3]", "value": "~120", "unit": "µM"}, {"measurement": "cell survival gain against photoactivated A2E", "setting": "[4]", "value": "+36%"}]}
